From ChEMBL document CHEMBL4414588, “Cinerols, Nitrogenous Meroterpenoids from the Marine Sponge Dysidea cinerea” (J Nat Prod, 2019)
Active and inactive are the calls of the source. No cut-off for these calls is given here.

Assays:
ATP-citrate synthase = target: T1, ATP-citrate synthase (Homo sapiens, UniProt P53396); experiment: Inhibition of ACL (unknown origin)
T1 sequence (P53396 whole entry): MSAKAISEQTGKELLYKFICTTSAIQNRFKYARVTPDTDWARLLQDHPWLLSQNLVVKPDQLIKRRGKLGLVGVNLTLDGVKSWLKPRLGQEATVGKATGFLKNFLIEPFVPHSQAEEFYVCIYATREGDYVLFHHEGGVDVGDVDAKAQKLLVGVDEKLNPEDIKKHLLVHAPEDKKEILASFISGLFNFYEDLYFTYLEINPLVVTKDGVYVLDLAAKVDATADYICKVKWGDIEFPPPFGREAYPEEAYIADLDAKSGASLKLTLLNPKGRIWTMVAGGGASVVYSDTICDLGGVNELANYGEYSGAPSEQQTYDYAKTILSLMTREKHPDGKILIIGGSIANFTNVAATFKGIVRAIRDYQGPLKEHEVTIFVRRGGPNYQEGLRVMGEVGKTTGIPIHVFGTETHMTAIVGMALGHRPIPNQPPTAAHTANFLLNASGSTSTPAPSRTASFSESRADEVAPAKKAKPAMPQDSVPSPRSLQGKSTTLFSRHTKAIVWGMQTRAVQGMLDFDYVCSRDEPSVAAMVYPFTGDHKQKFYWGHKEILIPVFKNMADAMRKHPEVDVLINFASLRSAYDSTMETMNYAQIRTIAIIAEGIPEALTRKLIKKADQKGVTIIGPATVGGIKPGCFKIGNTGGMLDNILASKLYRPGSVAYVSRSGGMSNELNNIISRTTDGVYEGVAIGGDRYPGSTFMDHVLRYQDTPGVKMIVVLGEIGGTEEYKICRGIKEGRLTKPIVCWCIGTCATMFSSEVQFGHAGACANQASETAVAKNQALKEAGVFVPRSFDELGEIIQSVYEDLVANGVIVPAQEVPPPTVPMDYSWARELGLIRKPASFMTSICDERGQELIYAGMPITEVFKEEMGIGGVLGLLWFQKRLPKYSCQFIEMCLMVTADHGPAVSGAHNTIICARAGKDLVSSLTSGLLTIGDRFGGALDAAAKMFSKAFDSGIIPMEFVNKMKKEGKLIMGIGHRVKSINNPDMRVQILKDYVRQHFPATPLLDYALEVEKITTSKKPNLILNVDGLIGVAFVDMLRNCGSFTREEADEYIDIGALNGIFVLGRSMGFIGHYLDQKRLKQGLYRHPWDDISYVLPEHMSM

A-375 = experiment: Cytotoxicity against human A375 cells assessed as reduction in cell viability at 32 uM incubated for 72 hrs by CCK8 assay; type: cell-based; conditions: a-375, 72 h
[1] = target: Tyrosine-protein kinase JAK2 (Homo sapiens) (UniProt O60674); experiment: Inhibition of JAK2 (unknown origin)
[2] = target: T2, Tyrosine-protein phosphatase non-receptor type 11 (Homo sapiens) (UniProt Q06124); experiment: Inhibition of SHP2 (unknown origin)
T2 sequence (whole entry): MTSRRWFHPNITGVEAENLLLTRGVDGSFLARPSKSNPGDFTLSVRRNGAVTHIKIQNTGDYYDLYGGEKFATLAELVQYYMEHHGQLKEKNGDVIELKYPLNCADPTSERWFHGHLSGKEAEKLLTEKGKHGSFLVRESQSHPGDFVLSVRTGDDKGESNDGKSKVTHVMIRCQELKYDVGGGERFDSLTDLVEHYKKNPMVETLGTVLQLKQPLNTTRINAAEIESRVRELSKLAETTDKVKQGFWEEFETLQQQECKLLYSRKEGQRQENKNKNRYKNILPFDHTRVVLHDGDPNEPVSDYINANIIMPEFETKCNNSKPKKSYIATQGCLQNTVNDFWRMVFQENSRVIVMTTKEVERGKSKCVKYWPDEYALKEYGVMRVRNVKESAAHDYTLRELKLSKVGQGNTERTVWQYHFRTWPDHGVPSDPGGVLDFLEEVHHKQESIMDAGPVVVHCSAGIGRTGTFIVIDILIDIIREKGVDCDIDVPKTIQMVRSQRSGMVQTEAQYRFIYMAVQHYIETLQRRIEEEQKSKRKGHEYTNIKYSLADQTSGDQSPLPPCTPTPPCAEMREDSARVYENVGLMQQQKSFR

[3] = target: T3, Tyrosine-protein phosphatase non-receptor type 1 (Homo sapiens, UniProt P18031); experiment: Inhibition of PTP1B (unknown origin) using pNPP as substrate incubated for 30 mins
T3 sequence (P18031 whole entry): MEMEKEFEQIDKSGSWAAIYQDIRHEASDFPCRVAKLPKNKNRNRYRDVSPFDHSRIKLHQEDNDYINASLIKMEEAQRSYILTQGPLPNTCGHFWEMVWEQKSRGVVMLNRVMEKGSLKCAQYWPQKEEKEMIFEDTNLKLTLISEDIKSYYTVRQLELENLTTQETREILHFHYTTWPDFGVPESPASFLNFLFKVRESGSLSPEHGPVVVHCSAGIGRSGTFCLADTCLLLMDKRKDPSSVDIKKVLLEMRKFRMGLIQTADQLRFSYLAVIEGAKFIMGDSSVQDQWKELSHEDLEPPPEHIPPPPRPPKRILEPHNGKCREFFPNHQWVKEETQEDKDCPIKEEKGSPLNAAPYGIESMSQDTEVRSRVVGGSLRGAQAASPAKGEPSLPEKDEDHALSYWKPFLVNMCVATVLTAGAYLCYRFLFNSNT

[4] = target: Tyrosine-protein phosphatase non-receptor type 6 (Homo sapiens, UniProt P29350); experiment: Inhibition of SHP1 (unknown origin)
[5] = target: Acetyl-CoA carboxylase 1 (Homo sapiens) (UniProt Q13085); experiment: Inhibition of ACC1 (unknown origin)
HEK293 = experiment: Cytotoxicity against human HEK293 cells assessed as reduction in cell viability at 32 uM incubated for 72 hrs by CCK8 assay; type: cell-based; conditions: hek293, 72 h

Sequence of Tyrosine-protein phosphatase non-receptor type 6 (P29350 whole entry): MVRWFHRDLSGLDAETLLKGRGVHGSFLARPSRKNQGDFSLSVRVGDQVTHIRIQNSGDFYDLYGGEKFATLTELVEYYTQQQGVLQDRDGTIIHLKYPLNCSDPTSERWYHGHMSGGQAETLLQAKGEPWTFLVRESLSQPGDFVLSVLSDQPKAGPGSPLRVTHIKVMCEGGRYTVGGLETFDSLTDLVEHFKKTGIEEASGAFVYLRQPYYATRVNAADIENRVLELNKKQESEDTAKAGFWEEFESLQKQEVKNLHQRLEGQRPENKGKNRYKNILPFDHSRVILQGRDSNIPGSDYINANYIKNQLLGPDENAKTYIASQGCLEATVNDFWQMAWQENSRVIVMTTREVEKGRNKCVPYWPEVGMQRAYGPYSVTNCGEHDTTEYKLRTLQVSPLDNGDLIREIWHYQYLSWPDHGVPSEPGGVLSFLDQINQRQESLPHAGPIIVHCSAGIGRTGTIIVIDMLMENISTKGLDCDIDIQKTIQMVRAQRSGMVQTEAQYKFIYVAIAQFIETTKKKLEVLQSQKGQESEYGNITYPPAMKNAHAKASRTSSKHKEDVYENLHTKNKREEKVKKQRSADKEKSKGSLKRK
Sequence of Tyrosine-protein kinase JAK2 (Homo sapiens) (O60674 whole entry): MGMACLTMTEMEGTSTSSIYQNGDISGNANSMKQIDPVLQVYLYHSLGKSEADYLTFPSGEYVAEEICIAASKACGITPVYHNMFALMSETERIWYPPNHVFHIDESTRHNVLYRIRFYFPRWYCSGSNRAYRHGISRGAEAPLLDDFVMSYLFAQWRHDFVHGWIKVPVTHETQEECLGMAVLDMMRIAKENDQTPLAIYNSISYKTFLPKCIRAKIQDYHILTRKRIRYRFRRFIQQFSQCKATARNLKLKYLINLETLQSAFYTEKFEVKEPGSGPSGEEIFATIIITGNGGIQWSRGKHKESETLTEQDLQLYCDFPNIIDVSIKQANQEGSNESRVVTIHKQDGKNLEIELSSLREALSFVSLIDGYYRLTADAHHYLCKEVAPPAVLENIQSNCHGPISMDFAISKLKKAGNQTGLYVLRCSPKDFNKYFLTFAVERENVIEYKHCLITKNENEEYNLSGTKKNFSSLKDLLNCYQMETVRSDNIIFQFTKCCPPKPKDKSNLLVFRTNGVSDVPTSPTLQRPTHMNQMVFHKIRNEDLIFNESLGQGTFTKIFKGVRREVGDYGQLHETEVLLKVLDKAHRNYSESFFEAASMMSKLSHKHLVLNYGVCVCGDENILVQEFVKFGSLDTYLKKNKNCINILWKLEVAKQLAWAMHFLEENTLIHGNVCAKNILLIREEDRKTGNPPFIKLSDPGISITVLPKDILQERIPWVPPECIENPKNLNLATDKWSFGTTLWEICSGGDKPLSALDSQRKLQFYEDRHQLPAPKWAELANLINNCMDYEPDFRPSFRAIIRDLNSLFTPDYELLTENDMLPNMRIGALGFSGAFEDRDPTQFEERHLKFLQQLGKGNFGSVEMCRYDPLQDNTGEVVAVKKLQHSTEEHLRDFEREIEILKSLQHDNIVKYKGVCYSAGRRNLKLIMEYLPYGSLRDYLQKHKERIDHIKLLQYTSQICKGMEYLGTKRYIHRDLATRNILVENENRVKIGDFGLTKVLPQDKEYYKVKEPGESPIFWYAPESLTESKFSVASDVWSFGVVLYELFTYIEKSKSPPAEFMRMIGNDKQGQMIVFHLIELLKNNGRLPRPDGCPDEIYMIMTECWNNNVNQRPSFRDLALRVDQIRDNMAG

IC50 (ATP-citrate synthase) [µM] | inhibition [1] | inhibition [2] | IC50 [3] [µM] | IC50 [4] [µM] | inhibition [5] | Compound | Activity (A-375) | Activity (HEK293)
2.8 to 27 | inactive | inactive | 2.8 to 27 | 2.8 to 27 | inactive | CC1=CCC[C@H]2[C@](C)(Cc3cc(O)cc4nc5n(c34)CCC5)[C@@H](C)CC[C@]12C | Non-Toxic | 
 | inactive | inactive |  |  | inactive | CC1=CCC[C@H]2[C@](C)(Cc3cc(-n4cccc4C=O)ccc3O)[C@@H](C)CC[C@]12C | Non-Toxic | Non-Toxic
 | inactive | inactive |  |  | inactive | CC(=O)Nc1ccc(O)c(C[C@]2(C)[C@@H](C)CC[C@]3(C)C(C)=CCC[C@@H]23)c1 | Non-Toxic | Non-Toxic
 | inactive | inactive |  |  | inactive | C=C1CCC[C@H]2[C@](C)(Cc3cc(O)cc4nc(C)oc34)[C@@H](C)CC[C@]12C | Non-Toxic | Non-Toxic
 | inactive | inactive |  |  | inactive | CC1=CCC[C@H]2[C@](C)(Cc3cc(O)cc4nc(C)oc34)[C@@H](C)CC[C@]12C | Non-Toxic | Non-Toxic
 | inactive | inactive |  |  | inactive | CC1=CCC[C@H]2[C@](C)(Cc3cc(NC(=O)CC(C)C)ccc3O)[C@@H](C)CC[C@]12C | Non-Toxic | 
2.8 to 27 | inactive | inactive | 2.8 to 27 | 2.8 to 27 | inactive | CC1=CCC[C@H]2[C@](C)(Cc3cc(O)cc4[nH]c(=O)oc34)[C@@H](C)CC[C@]12C | Non-Toxic | Non-Toxic
 | inactive | inactive |  |  | inactive | CC1=CCC[C@H]2[C@](C)(Cc3cc(O)cc4c3oc(=O)n4C)[C@@H](C)CC[C@]12C | Non-Toxic | Non-Toxic
 | inactive | inactive |  |  | inactive | CC1=CCC[C@H]2[C@](C)(Cc3cc(N4CCCC4=O)ccc3O)[C@@H](C)CC[C@]12C | Non-Toxic | Non-Toxic
2.8 to 27 | inactive | inactive | 2.8 to 27 | 2.8 to 27 | inactive | CC1=CCC[C@H]2[C@](C)(Cc3cc(O)cc4ncoc34)[C@@H](C)CC[C@]12C | Non-Toxic | Non-Toxic
2.8 to 27 | inactive | inactive | 2.8 to 27 | 2.8 to 27 | inactive | C=C1CCC[C@H]2[C@](C)(Cc3cc(O)cc4nc5n(c34)CCC5)[C@@H](C)CC[C@]12C | Non-Toxic | 
